Results: patent US12357645B2, “Drug combination for treatment of gastric cancer” (priority 2023, dated 2025)

What was measured:
rats = assay: Definitive toxicity studies in rats (intravenous); format: in vivo; details: definitive toxicity study
Description: (§1) As clinical development of minnelide prodrug was initiated using an intravenous drug product, IND-enabling toxicology studies were conducted in both rats and dogs using the intravenous route of administration. The results of these studies supported first-in-human clinical trials involving intravenous administration of minnelide prodrug to patients with advanced solid tumors. To support the clinical development of a new solid oral dosage form of minnelide prodrug (capsules), exploratory and definitive toxicity studies were conducted with minnelide prodrug in solution via oral gavage in dogs. Taken together, the results of the intravenous and oral toxicity studies conducted with minnelide prodrug indicate that the target organ profile of minnelide prodrug is consistent in both species (rats and dogs) when administered by either route of administration (intravenous or oral).

gastric cancer = details: alone or in combination, when properly dosed
Description: Gastric cancer is the most prevalent cancer in South Korea […]. […] Herein, we have evaluated efficacy of minnelide prodrug in combination with paclitaxel in a subcutaneous mouse model of gastric cancer and in a human clinical trial.

dogs = assay: Definitive toxicity studies in dogs (intravenous, oral gavage); format: in vivo
Description: as §1

[1] = test system: gastric cancer cell lines MKN28 and MKN45; details: inhibits Sp1 to decrease HSP70; cited from earlier work
[2] = test system: patients with Advanced Gastrointestinal Tumors; assay: Phase 1 study of intravenous minnelide prodrug: safety; format: in vivo, human
Description: Intravenous Minnelide Prodrug. Phase 1, Multi-Center, Open-Label, Dose-Escalation, Safety, Pharmacokinetic, and Pharmacodynamic Study of minnelide prodrug given intravenously daily for 21 days followed by 7 days off schedule in patients with Advanced Gastrointestinal Tumors. A second dosing schedule of minnelide prodrug given intravenously QD for 5 days with 2 days off for three weeks followed by a 7-day rest period was also explored during this study.

MKN45, MKN28I-N-87 = assay: Subcutaneous gastric cancer models, daily intraperitoneal minnelide prodrug; format: in vivo; details: 0.2 mg/kg and 0.4 mg/kg
[3] = test system: patients with Advanced Solid Tumors; format: in vivo, human
Description: Oral Minnelide Prodrug. A Phase 1, Multi-Center, Open-Label, Dose-Escalation, Safety, Pharmacokinetic, and Pharmacodynamic Study of Minnelide™ Capsules given alone or in combination with protein-bound paclitaxel in patients with Advanced Solid Tumors. A total of 44 patients were enrolled and dosed in the Phase 1 study, 32 in the monotherapy regimen, and 12 in the combination regimen. The primary reason for discontinuation of treatment has been disease progression. There were 9 deaths in the study, 7 of which were assessed as not related to minnelide prodrug and were after discontinuation of the study drug. One patient on the 1.25 mg monotherapy regimen passed away from G5 related sepsis.

[4] = 44 patients, alone or with protein-bound paclitaxel

Structure (SMILES): CC(C)[C@]12O[C@H]1[C@@H]1O[C@]13[C@]1(O[C@H]1C[C@H]1C4=C(CC[C@@]13C)C(=O)OC4)[C@@H]2OCOP(=O)([O-])[O-].[Na+].[Na+] [minnelide prodrug, disodium; [(1S,2S,4S,5S,7S,8R,9R,11S, 13S)-1-methyl-17-oxo-7-propan-2-yl-3,6,10,16-tetraoxaheptacyclo [11.7.0.0^2,4.0^2,9.0^5,7.0^9,11.0^14,18]icos-14 (18)-en-8-yl]oxymethyl phosphate]
- histopathology of reproductive tract tissues, males and females (rats): adverse, largely irreversible histopathological effects
- toxic effects (gastric cancer): no significant toxic effects
- histopathology of reproductive tract tissues, males and females (dogs; definitive toxicity studies, dogs): adverse, largely irreversible histopathological effects
- histopathology of the gastrointestinal tract (dogs; oral gavage for up to 28 consecutive days): No adverse histopathological effects
- cell death [1]: induce cell death
- Anemia and thrombocytopenia Grade 3 and 4 (drug related), share of patients [2]: 22%
- Serious Adverse Events related to the study drug [2]: six
- Serious Adverse Events, number [2]: 28
- TEAE cases considered DLTs [2]: two
- other possibly related side effects of any grade (nausea, vomiting, diarrhea, constipation, anorexia, stomatitis, cerebellar toxicity, embolism, dyspnea), share of patients [2]: ≤ 3%
- patients with Serious Adverse Events [2]: 17
- patients with at least 1 AE considered related to the study drug [2]: 32
- patients with neutropenic fever and neutropenic infection (drug related) [2]: three
- deaths in the study ([2]; 42 patients dosed, after study drug ended, within 30-day follow-up, not related to study drug): 6
- patients who discontinued study drug due to TEAEs ([2]; all Grade 3): 3
- resolution of grade 3 and 4 neutropenia after not receiving treatment ([2]; all dose levels): within a couple of days
- tumor weights and volumes (MKN45, MKN28I-N-87): markedly decreased tumor weights and volumes
- Serious Adverse Events related to the study drug [3, 4]: 4
- Serious Adverse Events, number [3, 4]: 28
- patients who discontinued study drug due to TEAE [3, 4]: Four
- patients with Serious Adverse Events [3, 4]: 17
- deaths in the study ([3]; 44 patients: 32 monotherapy, 12 combination): 9
- deaths assessed as not related to minnelide prodrug ([3]; after discontinuation of the study drug): 7
- patients with at least 1 AE considered related to the study drug ([3]; in vivo): Twenty-seven
- SAE cases considered dose limiting toxicities (DLTs) ([3]; two events of sepsis, one influenza A pneumonia): Three
